Results reported in paper PMC8037503, “Methiothepin Increases Chemotherapy Efficacy against Resistant Melanoma Cells” (Molecules, 2021).

Molecular target: T1, Ptch1 (Homo sapiens, UniProt Q13635)
T1 construct: human Ptch1 with C-terminal His-tag, DDM-solubilized from yeast membranes
T1 sequence (Q13635 1-1447): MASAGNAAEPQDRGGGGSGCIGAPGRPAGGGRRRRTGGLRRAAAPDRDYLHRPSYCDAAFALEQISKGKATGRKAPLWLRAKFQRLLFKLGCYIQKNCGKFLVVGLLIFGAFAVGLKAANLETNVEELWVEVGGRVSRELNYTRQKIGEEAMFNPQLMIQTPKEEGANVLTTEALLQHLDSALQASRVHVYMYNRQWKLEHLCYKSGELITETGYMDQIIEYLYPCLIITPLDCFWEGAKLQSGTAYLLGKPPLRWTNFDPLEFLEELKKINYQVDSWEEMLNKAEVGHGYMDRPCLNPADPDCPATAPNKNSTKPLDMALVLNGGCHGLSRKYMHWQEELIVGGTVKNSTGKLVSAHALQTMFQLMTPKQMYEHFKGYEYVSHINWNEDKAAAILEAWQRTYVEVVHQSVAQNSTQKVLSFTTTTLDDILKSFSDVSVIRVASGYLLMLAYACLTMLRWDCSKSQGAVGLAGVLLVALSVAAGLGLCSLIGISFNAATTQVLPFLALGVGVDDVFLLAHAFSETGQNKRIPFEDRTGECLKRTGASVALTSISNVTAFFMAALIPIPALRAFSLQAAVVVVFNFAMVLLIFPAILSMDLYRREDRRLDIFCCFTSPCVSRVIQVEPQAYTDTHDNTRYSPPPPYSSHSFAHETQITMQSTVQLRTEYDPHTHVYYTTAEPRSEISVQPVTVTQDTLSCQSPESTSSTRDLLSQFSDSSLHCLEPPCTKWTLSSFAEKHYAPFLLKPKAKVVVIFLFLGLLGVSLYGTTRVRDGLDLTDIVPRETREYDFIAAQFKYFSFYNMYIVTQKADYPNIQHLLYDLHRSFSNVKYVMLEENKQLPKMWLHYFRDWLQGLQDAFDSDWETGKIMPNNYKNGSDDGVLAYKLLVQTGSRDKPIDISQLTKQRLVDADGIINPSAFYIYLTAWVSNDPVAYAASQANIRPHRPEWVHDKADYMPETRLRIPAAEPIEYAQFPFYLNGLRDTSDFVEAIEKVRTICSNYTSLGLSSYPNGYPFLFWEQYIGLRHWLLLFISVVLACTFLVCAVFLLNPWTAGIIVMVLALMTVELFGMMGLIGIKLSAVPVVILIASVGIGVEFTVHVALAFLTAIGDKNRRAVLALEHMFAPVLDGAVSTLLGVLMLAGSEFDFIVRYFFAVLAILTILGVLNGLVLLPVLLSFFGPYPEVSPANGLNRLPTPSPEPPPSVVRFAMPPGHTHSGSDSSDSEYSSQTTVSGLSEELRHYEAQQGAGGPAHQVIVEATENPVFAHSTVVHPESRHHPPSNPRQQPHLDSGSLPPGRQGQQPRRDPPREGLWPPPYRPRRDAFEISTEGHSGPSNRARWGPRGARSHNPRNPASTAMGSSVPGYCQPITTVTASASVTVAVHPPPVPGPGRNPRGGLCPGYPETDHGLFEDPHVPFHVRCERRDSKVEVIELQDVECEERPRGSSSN
Test: microscale thermophoresis on DDM-solubilized membranes from yeast expressing human Ptch1 (His-tag labelled)
Assay type: binding

- Kd: ~7 µM
Structure (SMILES): CSc1ccc2c(c1)C(N1CCN(C)CC1)Cc1ccccc1S2 (stereo not shown) [P375, methiothepin]
